This is an account of results in patent US9550796B2, “Pyrrolopyrrolone derivatives and their use as BET inhibitors” (NOVARTIS AG, priority 2013, dated 2017).

Molecules are shown by their SMILES.

By IC50 is commonly meant the midpoint of a concentration-inhibition curve.

One assay has as its target BRD4-NUT-fusion (Homo sapiens, UniProt O60885). Description: Nut-foci formation assay in HCC2494 NUT midline carcinoma cells. The assay is classed as cell-based. The note with it: 24 hours, nuclear BRD4-NUT foci by immunofluorescence microscopy, read-out: HCS Brd4-NUT IC50. The method, then:
Nut-Foci Formation Assay […] Compound-mediated inhibition of BRD4 activity can be monitored by quantification of the number and intensity of nuclear BRD4-NUT foci using automated immunofluorescence microscopy. Briefly, 5000 cells in 20 μL fresh medium are seeded into Poly-D-Lysine-precoated 384-well plates and incubated overnight at 37° C. and 5% CO2, followed by addition of 5 μl medium containing compound dilutions at 5-fold their final intended concentration. […] Assay plates can be imaged using the appropriate filter sets on the Cellomics VTi automated fluorescence microscopy platform (ThermoFisher Scientific) and the population average of the number of NUT-foci per nucleus is quantified using the Cellomics Spot Detection BioApplication image analysis algorithm (ThermoFisher Scientific). […] Compound concentrations leading to half-maximal (IC50) inhibition of the aforementioned readout parameters are determined using standard four parameter curve fitting.

In the next assay the target is BRD4 (Homo sapiens (Human), UniProt O60885). Description: TR-FRET in-vitro binding assay for BRD4. The note with it: 45 nM His-Brd4(44-477), acetyl-histone H4 (AcK 5, 8, 12, 16) peptide. In short, it runs like this:
(§1)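 Incubation at 30° C lasted 35 min, followed by TR-FRET measurement; each compound was tested as 8 single-point concentrations.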
For orientation: TR-FRET usually uses a lanthanide donor and a delayed reading to cut background.

A further assay deals with BRD3 (Homo sapiens (Human), UniProt Q15059). Briefly: TR-FRET in-vitro binding assay for BRD3. The note with it: 45 nM His-Brd3(20-477), acetyl-histone H4 (AcK 5, 8, 12, 16) peptide. The procedure, abridged:
as §1

Another assay concerns the target BRD2 (Homo sapiens (Human), UniProt P25440). Briefly: TR-FRET in-vitro binding assay for BRD2. The note with it: 45 nM His-Brd2(60-472), acetyl-histone H4 (AcK 5, 8, 12, 16) peptide. In short, it runs like this:
as §1

BRD2, sequence (P25440 60-472): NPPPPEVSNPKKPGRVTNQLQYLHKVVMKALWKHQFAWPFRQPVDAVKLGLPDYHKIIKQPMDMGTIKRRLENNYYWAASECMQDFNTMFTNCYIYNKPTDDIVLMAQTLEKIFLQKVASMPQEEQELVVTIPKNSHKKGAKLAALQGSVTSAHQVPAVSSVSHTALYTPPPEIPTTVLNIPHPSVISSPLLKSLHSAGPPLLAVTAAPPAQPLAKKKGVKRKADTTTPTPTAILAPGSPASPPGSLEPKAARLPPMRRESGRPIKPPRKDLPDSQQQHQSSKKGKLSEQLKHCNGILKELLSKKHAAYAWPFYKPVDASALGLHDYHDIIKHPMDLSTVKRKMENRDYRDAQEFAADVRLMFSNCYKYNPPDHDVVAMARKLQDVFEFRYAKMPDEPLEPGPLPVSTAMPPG
BRD3, sequence (Q15059 20-477): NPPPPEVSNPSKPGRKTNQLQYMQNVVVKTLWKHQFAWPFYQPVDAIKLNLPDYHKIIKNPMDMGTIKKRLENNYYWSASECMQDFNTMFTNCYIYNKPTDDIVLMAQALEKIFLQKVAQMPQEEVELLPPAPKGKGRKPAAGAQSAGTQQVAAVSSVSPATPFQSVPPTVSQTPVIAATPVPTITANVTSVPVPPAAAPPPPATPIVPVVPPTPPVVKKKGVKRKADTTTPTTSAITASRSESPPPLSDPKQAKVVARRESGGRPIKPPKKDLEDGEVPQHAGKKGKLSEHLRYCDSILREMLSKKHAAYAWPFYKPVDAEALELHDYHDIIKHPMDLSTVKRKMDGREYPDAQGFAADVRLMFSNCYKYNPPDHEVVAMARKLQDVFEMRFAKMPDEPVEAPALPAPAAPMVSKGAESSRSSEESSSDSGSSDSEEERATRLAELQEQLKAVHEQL

Take `Cc1cn(C)c2c1C(=O)N(c1cc(C)c3nnc(C)n3c1)C2c1ccc(Cl)cc1` (centres unmarked) [Example 33, 6-(4-chlorophenyl)-5-(3,8-dimethyl-[1,2,4]triazolo[4,3-a]pyridin-6-yl)-1,3-di methyl-5,6-dihydropyrrolo[3,4-b]pyrrol-4(1H)-one]: the IC50 on BRD4-NUT-fusion was 9.55 nM; on BRD4 it was 31 nM; on BRD3, 35 nM; at BRD2, 36 nM.
Taken in the same sequence, the figures for `Cc1cn(C)c2c1C(=O)N(c1cc(C)c(=O)n(C)c1)C2c1ccc(Cl)cc1` (centres unmarked) [Example 34, 6-(4-chlorophenyl)-5-(1,5-dimethyl-6-oxo-1,6-dihydropyridin-3-yl)-1,3-dimethyl-5,6-dihydropyrrolo[3,4-b]pyrrol-4(1H)-one] were 26.8 nM, 43 nM, 32 nM and 37 nM.
Taken in the same sequence, the figures for `COc1ncc(-c2cc3c(n2C)C(c2ccc(Cl)cc2)N(c2cc(Cl)c(=O)n(C)c2)C3=O)c(OC)n1` (centres unmarked) [Example 38, 5-(5-chloro-1-methyl-6-oxo-1,6-dihydropyridin-3-yl)-6-(4-chlorophenyl)-2-(2,4-dimethoxypyrimidin-5-yl)-1-methyl-5,6-dihydropyrrolo[3,4-b]pyrrol-4(1H)-one] were 72.5 nM, 47 nM, 59 nM and 322 nM.
As to `Cn1c(-c2ccc(=O)n(C)c2)cc2c1C(c1ccc(Cl)cc1)N(c1cc(Cl)c(=O)n(C)c1)C2=O` (centres unmarked) [Example 42, 5-(5-chloro-1-methyl-6-oxo-1,6-dihydropyridin-3-yl)-6-(4-chlorophenyl)-1-methyl-2-(1-methyl-6-oxo-1,6-dihydropyridin-3-yl)-5,6-dihydropyrrolo[3,4-b]pyrrol-4(1H)-one], the IC50 amounted to 4970 nM at BRD4-NUT-fusion, 270 nM on BRD4 and 53 nM at BRD3.
Consider `Cc1cc(N2C(=O)c3cc(-c4ccn(C)c(=O)c4)n(C)c3C2c2ccc(Cl)cc2)cn(C)c1=O` (centres unmarked) [Example 45, 6-(4-chlorophenyl)-5-(1,5-dimethyl-6-oxo-1,6-dihydropyridin-3-yl)-1-methyl-2-(1-methyl-2-oxo-1,2-dihydropyridin-4-yl)-5,6-dihydropyrrolo[3,4-b]pyrrol-4(1H)-one], for which the half-inhibitory concentration (IC50) is 97.3 nM on BRD4-NUT-fusion, 24.5 nM at BRD4, 18.5 nM at BRD3 and 22 nM on BRD2.
The matching figures for `COc1ncc(-c2cc3c(n2C)[C@@H](c2ccc(Cl)cc2)N(c2cc(C)c(=O)n(C)c2)C3=O)c(OC)n1` [Example 54, (R)-6-(4-chlorophenyl)-2-(2,4-dimethoxypyrimidin-5-yl)-5-(1,5-dimethyl-6-oxo-1,6-dihydropyridin-3-yl)-1-methyl-5,6-dihydropyrrolo[3,4-b]pyrrol-4(1H)-one]: 26.7 nM, 45 nM, 28 nM and 27 nM.
The matching figures for `COc1ncc(-c2cc3c(n2C)[C@@H](c2ccc(Cl)cc2)N(c2cc(C)c(=O)n(C)c2)C3=O)cn1` [Example 56, (R)-6-(4-chlorophenyl)-5-(1,5-dimethyl-6-oxo-1,6-dihydropyridin-3-yl)-2-(2-methoxypyrimidin-5-yl)-1-methyl-5,6-dihydropyrrolo[3,4-b]pyrrol-4(1H)-one]: 39.1 nM, 28.3 nM, 22 nM and 30 nM.
The matching figures for `Cc1cc2c(n1C)[C@@H](c1ccc(Cl)cc1)N(c1cc(Cl)c(=O)n(C)c1)C2=O` [Example 75, (R)-5-(5-chloro-1-methyl-6-oxo-1,6-dihydropyridin-3-yl)-6-(4-chlorophenyl)-1,2-dimethyl-5,6-dihydropyrrolo[3,4-b]pyrrol-4(1H)-one]: 11.2 nM, 85.3 nM, 53.3 nM and 135 nM.
For `Cn1ccc2c1[C@@H](c1ccc(Cl)cc1)N(c1cc(Cl)c(=O)n(C)c1)C2=O` [Example 77, (R)-5-(5-chloro-1-methyl-6-oxo-1,6-dihydropyridin-3-yl)-6-(4-chlorophenyl)-1-methyl-5,6-dihydropyrrolo[3,4-b]pyrrol-4(1H)-one], the IC50 at BRD4-NUT-fusion was 10.1 nM; at BRD4 it was 109 nM; at BRD3 it was 94.5 nM; on BRD2 it was 198 nM.
